In ChEMBL document CHEMBL2074490, “Transport and uptake of nateglinide in Caco-2 cells and its inhibitory effect on human monocarboxylate transporter MCT1” (Br J Pharmacol, 2002):

Target: Monocarboxylate transporter 1 (Homo sapiens) (UniProt P53985)
Test: TP_TRANSPORTER: uptake in Xenopus laevis oocytes
Conditions: Oocyte

Monocarboxylate transporter 1 (Homo sapiens), sequence (P53985 whole entry, looked up): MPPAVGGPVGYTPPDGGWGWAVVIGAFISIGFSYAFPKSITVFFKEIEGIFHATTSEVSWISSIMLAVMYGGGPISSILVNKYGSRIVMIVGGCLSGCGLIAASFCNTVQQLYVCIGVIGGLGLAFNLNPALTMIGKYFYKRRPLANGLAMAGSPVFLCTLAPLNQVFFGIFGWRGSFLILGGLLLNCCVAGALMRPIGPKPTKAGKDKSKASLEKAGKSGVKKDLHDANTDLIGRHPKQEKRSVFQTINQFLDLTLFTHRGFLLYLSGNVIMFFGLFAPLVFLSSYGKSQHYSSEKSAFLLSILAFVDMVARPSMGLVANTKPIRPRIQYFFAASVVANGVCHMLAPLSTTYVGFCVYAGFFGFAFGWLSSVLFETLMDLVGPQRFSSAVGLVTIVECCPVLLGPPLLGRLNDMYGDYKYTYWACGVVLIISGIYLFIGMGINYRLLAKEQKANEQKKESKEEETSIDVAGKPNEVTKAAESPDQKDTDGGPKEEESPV

CC(C)[C@H]1CC[C@H](C(=O)N[C@H](Cc2ccccc2)C(=O)O)CC1
Activity: is not a substrate [-]
